Consider six compounds from ChEMBL document CHEMBL4476888, “Tosylacetate based compounds and derivatives thereof as phgdh inhibitors” (2018).

This assay has as its target T1, D-3-phosphoglycerate dehydrogenase (Homo sapiens, UniProt O43175).
T1 sequence (O43175 whole entry): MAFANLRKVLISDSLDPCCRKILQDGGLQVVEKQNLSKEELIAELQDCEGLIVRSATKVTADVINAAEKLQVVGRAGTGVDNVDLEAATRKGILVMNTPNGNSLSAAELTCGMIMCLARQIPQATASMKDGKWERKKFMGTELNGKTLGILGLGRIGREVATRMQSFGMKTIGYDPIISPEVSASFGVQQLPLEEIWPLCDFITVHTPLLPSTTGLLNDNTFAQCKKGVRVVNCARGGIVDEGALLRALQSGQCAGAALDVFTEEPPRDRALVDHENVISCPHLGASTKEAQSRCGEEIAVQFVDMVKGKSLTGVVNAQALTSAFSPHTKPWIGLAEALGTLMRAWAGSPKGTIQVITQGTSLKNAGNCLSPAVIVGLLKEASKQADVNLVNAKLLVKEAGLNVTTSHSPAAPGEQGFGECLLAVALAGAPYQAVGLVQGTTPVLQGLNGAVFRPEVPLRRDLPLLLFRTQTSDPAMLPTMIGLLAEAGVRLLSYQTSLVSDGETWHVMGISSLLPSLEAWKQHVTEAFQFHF
In words: Inhibition of N-terminal HIS-tagged and TEV cleavage site containing full length PHGDH (unknown origin) expressed in Escherichia coli assessed as reduction in conversion of 3-Phosphoglycerate and NAD to 3-Phosphohydroxypyruvate and NADH using 250 uM NAD and 500 uM 3-PG incubated for 240 mins by fluorescence based assay.
Consider `Cc1cc(Cl)c2cc(C(=O)N[C@H](C)c3ccc(S(=O)(=O)CC(=O)OCCNC(=O)OC(C)(C)C)cc3)n(C)c2c1`, for which the IC50 is 0.701 µM. With `Cc1cc(Cl)c2cc(C(=O)N[C@H](CO)c3ccc(S(=O)(=O)CC(=O)OCC4(F)COC4)cc3)n(C)c2c1`, the IC50 was found to be 0.027 µM.

Consider `COC(=O)CS(=O)(=O)c1ccc([C@@H](C)NC(=O)c2cc3c(Cl)cc(C)cc3n2C)nc1`, for which the IC50 turned out to be 1.13 µM.

Take `Cc1cc2c(cc(C(=O)N[C@@H](C)c3ccc(S(=O)(=O)CC(=O)O)cc3)n2C)c(Cl)c1Cl`: the IC50 amounted to 0.155 µM.

Regarding `COCCOC(=O)CS(=O)(=O)c1ccc([C@@H](CO)NC(=O)c2cc3c(Cl)cc(C)cc3n2C)cc1`, the half-inhibitory concentration (IC50) came out at 0.062 µM.

On to `Cc1cc(Cl)c2cc(C(=O)N[C@H](C)c3ccc(S(=O)(=O)C(C)(C)C(=O)OC(C)(C)C)cc3)n(C)c2c1`, for which the IC50 is 5.05 µM.

For orientation: IC50 means the concentration that inhibits the measured activity by half.
